Experimental data from patent US9976141B2, “Compositions and methods for inhibiting gene expression of Hif2alpha” (Arrowhead Madison Inc., priority 2015, dated 2018).
Strand notation (5' to 3'): a small letter for the sugar, then the base; units joined by * are phosphorothioate-linked, units joined directly phosphodiester-linked; [ ] holds rarer units or linkages, { } end groups; capitals alone tell only the bases. d = 2'-deoxy (DNA); m = 2'-O-methyl; f = 2'-fluoro

Tested on: human EPAS1 (Hif2α) cDNA in psiCHECK2 (Renilla luciferase/EPAS1 fusion mRNA) in Hep3B cells
Experiment: Efficacy screen of Hif2α RNAi triggers in vitro, dual-luciferase reporter assay (1 nM and 0.1 nM)
Format: cell-based
Conditions: Hep3B cells co-transfected with EPAS1-psiCHECK2, Renilla luciferase normalized to firefly luciferase
In short: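 Knockdown read by dual-luciferase assay: Renilla signal from the Renilla/EPAS1 fusion transcript divided by firefly luciferase expressed from the same plasmid. Triggers (modified canonical siRNAs, 1 nM or 0.1 nM) were co-transfected with 25 ng reporter plasmid per well into human hepatocellular carcinoma Hep3B cells.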

Substance | Relative Rluc-Hif2α (0.1 nM RNAi trigger) | Relative Rluc-Hif2α (1 nM RNAi trigger)
2370 (sense fCmGfGmGfGmAfAmGfUmGfCmUfCmUfAmAfCmUfAdT; antisense dTfAmGfUmUfAmGfAmGfCmAfCmUfUmCfCmCfCmGdT*dT; siRNA) [compound 2370] | 0.498 ± 0.128 | 0.294 ± 0.026
2321 (sense fUmUfGmAfUmGfCmCfGmGfAmCfAmAfGmCfCmAfAdT; antisense dTfUmGfGmCfUmUfGmUfCmCfGmGfCmAfUmCfAmAdT*dT; siRNA) [compound 2321] | 0.561 ± 0.043 | 0.665 ± 0.033
2296 (sense fCmAfUmCfUmUfUmGfGmAfUmAfAmCfGmAfCmCfAdT; antisense dTfGmGfUmCfGmUfUmAfUmCfCmAfAmAfGmAfUmGdT*dT; siRNA) [compound 2296] | 0.411 ± 0.079 | 0.213 ± 0.028
2383 (sense fGmGfUmAfAmGfAmGfGmGfAmCfGmAfCmAfCmCfAdT; antisense dTfGmGfUmGfUmCfGmUfCmCfCmUfCmUfUmAfCmCdT*dT; siRNA) [compound 2383] | 0.833 ± 0.082 | 1.060 ± 0.292
2393 (sense fUmAfAmGfGmGfCmAfUmUfUmUfAmCfCmCfUmUfAdT; antisense dTfAmAfGmGfGmUfAmAfAmAfUmGfCmCfCmUfUmAdT*dT; siRNA) [compound 2393] | 0.862 ± 0.388 | 1.049 ± 0.089
2243 (sense fUmUfCmAfUmGfGmGfAmCfUmUfAmCfAmCfAmGfAdT; antisense dTfCmUfGmUfGmUfAmAfGmUfCmCfCmAfUmGfAmAdT*dT; siRNA) [compound 2243] | 0.688 ± 0.059 | 0.694 ± 0.107
2380 (sense fCmCfAmAfGmCfUmCfAmCfGmAfCmCfUmUfGmGfAdT; antisense dTfCmCfAmAfGmGfUmCfGmUfGmAfGmCfUmUfGmGdT*dT; siRNA) [compound 2380] | 1.128 ± 0.285 | 1.722 ± 0.101
2320 (sense fUmUfUmGfAmUfGmCfCmGfGmAfCmAfAmGfCmCfAdT; antisense dTfGmGfCmUfUmGfUmCfCmGfGmCfAmUfCmAfAmAdT*dT; siRNA) [compound 2320] | 0.770 ± 0.312 | 0.486 ± 0.059
2303 (sense fGmAfUmGfCmCfGmGfAmAfGmCfAmAfAmGfCmAfAdT; antisense dTfUmGfCmUfUmUfGmCfUmUfCmCfGmGfCmAfUmCdT*dT; siRNA) [compound 2303] | 0.414 ± 0.002 | 0.294 ± 0.034
2297 (sense fCmAfAmUfGmCfAmGfUmAfCmCfCmAfGmAfCmGfAdT; antisense dTfCmGfUmCfUmGfGmGfUmAfCmUfGmCfAmUfUmGdT*dT; siRNA) [compound 2297] | 0.704 ± 0.083 | 0.643 ± 0.028
2263 (sense fAmAfUmAfGmUfCmUfGmUfGmUfGmGfCmUfAmCfAdT; antisense dTfGmUfAmGfCmCfAmCfAmCfAmGfAmCfUmAfUmUdT*dT; siRNA) [compound 2263] | 1.126 ± 0.083 | 0.875 ± 0.059
2300 (sense fCmUfGmUfAmGfCmCfCmCfGmCfAmCfAmGfUmCfAdT; antisense dTfGmAfCmUfGmUfGmCfGmGfGmGfCmUfAmCfAmGdT*dT; siRNA) [compound 2300] | 1.090 ± 0.106 | 0.786 ± 0.181
2294 (sense fGmCfUmCfCmAfCmGfCmCfCmAfAmUfAmGfCmCfAdT; antisense dTfGmGfCmUfAmUfUmGfGmGfCmGfUmGfGmAfGmCdT*dT; siRNA) [compound 2294] | 0.743 ± 0.100 | 0.546 ± 0.033
2400 (sense fCmUfAmCfCmUfGmUfCmAfAmCfGmUfAmAfCmGfAdT; antisense dTfCmGfUmUfAmCfGmUfUmGfAmCfAmGfGmUfAmGdT*dT; siRNA) [compound 2400] | 0.478 ± 0.028 | 0.165 ± 0.020
